Measurements from patent publication US12264134B2 (Merck Sharp & Dohme LLC, priority 2018, dated 2025).

Assays:
IDO1 [1] = molecular target: T1, IDO1 (Homo sapiens, UniProt P14902); assay: IDO1 Cellular Assay in HeLa Cells Stimulated with IFNγ; type: cell-based; settings: read-out: HeLa Cell Potency, IC50
IDO1 [2] = molecular target: T1, IDO1; assay: IDO1 Human Whole blood Assay; type: cell-based; set-up: Human whole blood was drawn in sodium heparin coated tubes from healthy internal donors; from tissue; host or cells: human whole blood from healthy donors, stimulated with LPS and IFNγ; settings: LPS and IFNγ stimulated, 18 h, read-out: Human Whole Blood Potency, IC50
In short: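 LC/MS/MS of kynurenine, normalized to spiked isotope-labeled standard (3 μM final), served as the readout. Beforehand, fresh human blood with compound (15 min preincubation) was stimulated overnight (18 h, 37 °C) with 100 ng/mL LPS/IFNγ. IC50 was obtained by four-parameter curve fitting.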

T1 sequence (P14902 whole entry): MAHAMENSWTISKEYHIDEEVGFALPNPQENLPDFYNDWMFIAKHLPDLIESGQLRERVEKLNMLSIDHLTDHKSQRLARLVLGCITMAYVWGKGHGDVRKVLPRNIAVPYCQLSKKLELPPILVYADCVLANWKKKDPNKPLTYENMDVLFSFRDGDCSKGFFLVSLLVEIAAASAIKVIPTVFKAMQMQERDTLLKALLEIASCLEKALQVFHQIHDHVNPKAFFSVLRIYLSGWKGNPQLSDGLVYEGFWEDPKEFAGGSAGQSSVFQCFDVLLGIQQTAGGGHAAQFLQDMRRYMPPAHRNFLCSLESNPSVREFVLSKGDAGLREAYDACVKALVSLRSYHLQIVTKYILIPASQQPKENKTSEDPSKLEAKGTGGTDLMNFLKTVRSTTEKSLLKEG

| IC50 (IDO1 [1]) [nM] | IC50 (IDO1 [2]) [nM] | Compound |
| --- | --- | --- |
| 2.9 | 292 | Cc1cccc(N2CCN(C(=O)Cn3nc(C(=O)N4CCC(NS(C)(=O)=O)CC4)c4c3CCC4)CC2)c1C [Example 90, N-[1-(1-{2-[4-(2,3-dimethylphenyl)piperazin-1-yl]-2-oxoethyl}-1,4,5,6-tetrahydrocyclopenta[c]pyrazole-3-carbonyl)piperidin-4-yl]methanesulfonamide] |
| 1.38 | 135 | Cc1c(F)ccc(N2CCN(C(=O)Cn3nc(C(=O)N4CCC(O)CC4(C)C)c4c3CCCC4)CC2)c1C (stereo not shown) [Example 464, 1-(4-(4-fluoro-2,3-dimethylphenyl)piperazin-1-yl)-2-(3-(4-hydroxy-2,2-dimethyl-piperidine-1-carbonyl)-4,5,6,7-tetrahydro-1H-indazol-1-yl)ethanone] |
